Test results as given in publication PMC8909834, “An Orally Bioavailable and Highly Efficacious Inhibitor of CDK9/FLT3 for the Treatment of Acute Myeloid Leukemia” (Cancers, 2022).

Assays:
Experiment in all cases: Kinase Hotspot radiolabel assay
Type in all cases: biochemical
Details in all cases: read-out: % Residual Activity
ALK5/TGFBR1 = molecular target: T1, ALK5/TGFBR1 (Homo sapiens, UniProt P36897)
T1 construct: purchased Reaction Biology Corporation (Kinase HotSpot)
Description: (§1) Kinase assay. The ADP Glo^TM kinase assay (Promega, Madison, WI, USA) was used to assess the inhibition by CDDD11-8 of CDKs 1, 2, 4, 6, 7, and 9, as well as the mutant isoforms of FLT3. The assays were performed in accord with the manufacturer’s protocol (Promega) as described previously. Briefly, serial three-fold dilutions of CDDD11-8 were prepared in 100% DMSO from a 2 mM stock solution, followed by 1:40 dilution into Milli-Q water. Subsequently, 1 µL of each sample was incubated with 4 µL of kinase mixture containing a particular CDK enzyme and its substrate, standard kinase buffer [3 mM MgCl2, 50 mM HEPES-NaOH pH 7.5, 3 mM MnCl2, 3 µM Na-orthovanadate, 1 mM dithiothreitol (DTT)], kinase dilution buffer (containing 0.25 mg/mL PEG20,000, 50 mM HEPES-NaOH pH 7.5, 1 mM DTT), and ATP at 37 °C for 30 to 40 min. The final reaction mixture contained 0.5% DMSO in all samples, and the applied kinase concentrations were 1, 1, 10, 40, 20, and 50 nM for CDK1, 2, 4, 6, 7, and 9, respectively. The reaction was stopped by adding ADP-Glo reagent and the mixture was incubated further in the dark at room temperature for 40 min. As a final step, kinase detection reagent was added to each mixture and incubated at room temperature for 30 to 60 min. Luminescence was read using an EnVision® multilabel plate reader (PerkinElmer, Beaconsfield, UK), and half-maximum inhibitory concentrations (IC50) were calculated using a non-linear regression model with a variable slope, plotting log (inhibitor concentration) vs. response using the following formula: Ar%=Bottom+Top−Bottom/1+Inhibitor Concentration/IC50^HillSlope where the relative activity Ar (%) is the signal relative to the controls, IC50 is the half maximum concentration, Hillslope is the steepness of the dose-response curve, Top and Bottom are plateaus reflecting the maximum and minimum in responses on the Y-axis (GraphPad Prism version 7, San Diego, CA, USA). Ki values were calculated from the IC50 using the Cheng−Prusoff equation [32]. Extensive specificity assessment was carried out by Reaction Biology Corporation (Malvern, PA, USA) with 369 kinases using 1 µM CDDD11-8 concentration in a Kinase Hotspot radiolabel assay (for experimental details, please see (Reaction Biology https://www.reactionbiology.com/). Subsequently, Ki values were determined for kinases with greater than 90% inhibition.

ALK6/BMPR1B = molecular target: T2, ALK6/BMPR1B (Homo sapiens, UniProt O00238)
T2 construct: purchased Reaction Biology Corporation (Kinase HotSpot)
Description: as §1

CAMKK1 = molecular target: T3, CAMKK1 (Homo sapiens, UniProt Q8N5S9)
T3 construct: purchased Reaction Biology Corporation (Kinase HotSpot)
Description: as §1

CDK5/p25 = molecular target: T4, CDK5/p25 (Homo sapiens, UniProt Q00535)
T4 construct: purchased Reaction Biology Corporation (Kinase HotSpot)
Description: as §1

CK1g3 = molecular target: T5, CK1g3 (Homo sapiens, UniProt Q9Y6M4)
T5 construct: purchased Reaction Biology Corporation (Kinase HotSpot)
Description: as §1

CK2a2 = molecular target: T6, CK2a2 (Homo sapiens, UniProt P19784)
T6 construct: purchased Reaction Biology Corporation (Kinase HotSpot)
Description: as §1

COT1/MAP3K8 = molecular target: T7, COT1/MAP3K8 (Homo sapiens, UniProt P41279)
T7 construct: purchased Reaction Biology Corporation (Kinase HotSpot)
T7 sequence (P41279 whole entry): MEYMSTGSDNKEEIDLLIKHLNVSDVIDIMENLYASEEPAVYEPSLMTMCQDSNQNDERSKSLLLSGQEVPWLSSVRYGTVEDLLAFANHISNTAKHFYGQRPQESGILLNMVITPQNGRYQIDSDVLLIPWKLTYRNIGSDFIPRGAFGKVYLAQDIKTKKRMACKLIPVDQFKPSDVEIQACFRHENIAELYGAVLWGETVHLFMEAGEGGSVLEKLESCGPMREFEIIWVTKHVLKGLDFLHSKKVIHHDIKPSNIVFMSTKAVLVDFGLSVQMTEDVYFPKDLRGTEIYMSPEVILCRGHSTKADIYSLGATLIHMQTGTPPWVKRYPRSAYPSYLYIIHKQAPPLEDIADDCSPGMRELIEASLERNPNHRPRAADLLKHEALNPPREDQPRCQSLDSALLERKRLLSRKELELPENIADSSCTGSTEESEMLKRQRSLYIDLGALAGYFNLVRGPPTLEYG
Description: as §1

DDR1 = molecular target: T8, DDR1 (Homo sapiens, UniProt Q08345)
T8 construct: purchased Reaction Biology Corporation (Kinase HotSpot)
Description: as §1

FAK/PTK2 = molecular target: T9, FAK/PTK2 (Homo sapiens, UniProt Q05397)
T9 construct: purchased Reaction Biology Corporation (Kinase HotSpot)
T9 sequence (Q05397 whole entry): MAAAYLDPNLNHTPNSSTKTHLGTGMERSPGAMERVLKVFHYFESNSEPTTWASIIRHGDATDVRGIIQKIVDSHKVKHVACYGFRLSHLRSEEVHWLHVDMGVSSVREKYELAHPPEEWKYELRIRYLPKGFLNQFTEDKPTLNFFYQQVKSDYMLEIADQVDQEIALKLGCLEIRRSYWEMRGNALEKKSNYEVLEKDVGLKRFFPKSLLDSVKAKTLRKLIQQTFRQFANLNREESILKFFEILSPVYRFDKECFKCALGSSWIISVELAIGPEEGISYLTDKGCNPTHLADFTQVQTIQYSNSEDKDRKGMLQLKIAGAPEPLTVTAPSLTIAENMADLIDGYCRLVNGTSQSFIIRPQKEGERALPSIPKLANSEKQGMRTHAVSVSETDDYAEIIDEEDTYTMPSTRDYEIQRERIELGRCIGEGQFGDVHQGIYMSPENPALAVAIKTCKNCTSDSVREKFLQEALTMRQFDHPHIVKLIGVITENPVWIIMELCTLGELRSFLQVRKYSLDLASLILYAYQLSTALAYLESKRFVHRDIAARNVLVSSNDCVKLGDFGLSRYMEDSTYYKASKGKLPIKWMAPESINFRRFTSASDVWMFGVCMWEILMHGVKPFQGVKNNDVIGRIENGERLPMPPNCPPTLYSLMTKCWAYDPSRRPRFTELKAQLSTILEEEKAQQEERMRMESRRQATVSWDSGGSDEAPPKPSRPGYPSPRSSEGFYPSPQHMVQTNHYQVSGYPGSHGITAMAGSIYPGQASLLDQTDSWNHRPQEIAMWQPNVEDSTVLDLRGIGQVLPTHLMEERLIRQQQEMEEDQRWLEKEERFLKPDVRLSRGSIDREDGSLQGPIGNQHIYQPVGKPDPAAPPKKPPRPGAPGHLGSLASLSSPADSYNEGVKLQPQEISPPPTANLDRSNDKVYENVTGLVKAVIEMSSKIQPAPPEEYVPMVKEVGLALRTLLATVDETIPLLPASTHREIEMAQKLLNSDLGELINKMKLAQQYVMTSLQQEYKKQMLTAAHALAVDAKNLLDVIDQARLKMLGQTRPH
Description: as §1

FER = molecular target: T10, FER (Homo sapiens, UniProt P16591)
T10 construct: purchased Reaction Biology Corporation (Kinase HotSpot)
Description: as §1

FLT3 = molecular target: T11, FLT3 (Homo sapiens, UniProt P36888)
T11 construct: purchased Reaction Biology Corporation (Kinase HotSpot)
Description: as §1

HIPK4 = molecular target: T12, HIPK4 (Homo sapiens, UniProt Q8NE63)
T12 construct: purchased Reaction Biology Corporation (Kinase HotSpot)
Description: as §1

IRR/INSRR = molecular target: T13, IRR/INSRR (Homo sapiens, UniProt P14616)
T13 construct: purchased Reaction Biology Corporation (Kinase HotSpot)
Description: as §1

JNK2 = molecular target: T14, JNK2 (Homo sapiens, UniProt P45984)
T14 construct: purchased Reaction Biology Corporation (Kinase HotSpot)
Description: as §1

LCK = molecular target: T15, LCK (Homo sapiens, UniProt P06239)
T15 construct: purchased Reaction Biology Corporation (Kinase HotSpot)
Description: as §1

MLCK/MYLK = molecular target: T16, MLCK/MYLK (Homo sapiens, UniProt Q15746)
T16 construct: purchased Reaction Biology Corporation (Kinase HotSpot)
Description: as §1

MNK1 = molecular target: T17, MNK1 (Homo sapiens, UniProt Q9BUB5)
T17 construct: purchased Reaction Biology Corporation (Kinase HotSpot)
T17 sequence (Q9BUB5 whole entry): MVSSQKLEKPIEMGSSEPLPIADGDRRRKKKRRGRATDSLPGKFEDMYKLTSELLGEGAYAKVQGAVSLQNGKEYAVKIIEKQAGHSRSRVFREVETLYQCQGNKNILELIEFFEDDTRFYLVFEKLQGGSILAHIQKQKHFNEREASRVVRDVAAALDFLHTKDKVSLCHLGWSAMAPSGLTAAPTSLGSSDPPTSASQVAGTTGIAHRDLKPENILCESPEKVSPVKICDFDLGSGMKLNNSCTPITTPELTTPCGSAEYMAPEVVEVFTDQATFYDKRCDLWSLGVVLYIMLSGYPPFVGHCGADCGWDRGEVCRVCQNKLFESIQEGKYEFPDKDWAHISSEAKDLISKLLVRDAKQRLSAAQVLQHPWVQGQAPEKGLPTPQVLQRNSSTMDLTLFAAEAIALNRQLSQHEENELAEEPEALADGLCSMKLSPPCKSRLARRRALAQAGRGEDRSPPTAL
Description: as §1

MRCKa/CDC42BPA = molecular target: T18, MRCKa/CDC42BPA (Homo sapiens, UniProt Q5VT25)
T18 construct: purchased Reaction Biology Corporation (Kinase HotSpot)
Description: as §1

MST4 = molecular target: T19, MST4 (Homo sapiens, UniProt Q9P289)
T19 construct: purchased Reaction Biology Corporation (Kinase HotSpot)
Description: as §1

NLK = molecular target: T20, NLK (Homo sapiens, UniProt Q9UBE8)
T20 construct: purchased Reaction Biology Corporation (Kinase HotSpot)
Description: as §1

PAK4 = molecular target: T21, PAK4 (Homo sapiens, UniProt O96013)
T21 construct: purchased Reaction Biology Corporation (Kinase HotSpot)
Description: as §1

PKG2/PRKG2 = molecular target: T22, PKG2/PRKG2 (Homo sapiens, UniProt Q13237)
T22 construct: purchased Reaction Biology Corporation (Kinase HotSpot)
Description: as §1

PLK4/SAK = molecular target: T23, PLK4/SAK (Homo sapiens, UniProt O00444)
T23 construct: purchased Reaction Biology Corporation (Kinase HotSpot)
T23 sequence (O00444 whole entry): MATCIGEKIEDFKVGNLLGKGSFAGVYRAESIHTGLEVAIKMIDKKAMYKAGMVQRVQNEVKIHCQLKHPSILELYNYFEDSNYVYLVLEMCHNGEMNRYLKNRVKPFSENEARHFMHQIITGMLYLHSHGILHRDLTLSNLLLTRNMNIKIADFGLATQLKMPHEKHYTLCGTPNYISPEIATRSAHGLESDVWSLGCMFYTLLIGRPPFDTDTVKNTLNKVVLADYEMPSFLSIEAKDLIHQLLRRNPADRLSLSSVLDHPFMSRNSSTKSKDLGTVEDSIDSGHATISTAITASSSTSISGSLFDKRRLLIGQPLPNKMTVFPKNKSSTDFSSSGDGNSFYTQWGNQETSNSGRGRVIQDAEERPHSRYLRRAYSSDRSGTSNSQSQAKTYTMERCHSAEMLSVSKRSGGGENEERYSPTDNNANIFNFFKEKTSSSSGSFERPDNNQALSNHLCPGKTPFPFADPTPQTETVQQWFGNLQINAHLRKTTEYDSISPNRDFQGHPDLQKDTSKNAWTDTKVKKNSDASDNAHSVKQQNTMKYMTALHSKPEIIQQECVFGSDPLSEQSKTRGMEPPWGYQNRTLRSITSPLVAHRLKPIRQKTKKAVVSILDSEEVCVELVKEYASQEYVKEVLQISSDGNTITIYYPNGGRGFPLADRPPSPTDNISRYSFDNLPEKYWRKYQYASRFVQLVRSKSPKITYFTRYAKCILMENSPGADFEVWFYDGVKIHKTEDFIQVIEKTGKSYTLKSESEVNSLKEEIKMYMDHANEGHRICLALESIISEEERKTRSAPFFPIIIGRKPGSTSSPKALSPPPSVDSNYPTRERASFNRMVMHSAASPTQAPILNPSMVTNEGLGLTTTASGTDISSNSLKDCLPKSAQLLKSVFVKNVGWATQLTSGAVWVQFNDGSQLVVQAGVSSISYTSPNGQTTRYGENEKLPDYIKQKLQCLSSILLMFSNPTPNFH
Description: as §1

PYK2 = molecular target: T24, PYK2 (Homo sapiens, UniProt Q14289)
T24 construct: purchased Reaction Biology Corporation (Kinase HotSpot)
Description: as §1

RSK3 = molecular target: T25, RSK3 (Homo sapiens, UniProt Q15349)
T25 construct: purchased Reaction Biology Corporation (Kinase HotSpot)
Description: as §1

STK25/YSK1 = molecular target: T26, STK25/YSK1 (Homo sapiens, UniProt O00506)
T26 construct: purchased Reaction Biology Corporation (Kinase HotSpot)
Description: as §1

TAOK2/TAO1 = molecular target: T27, TAOK2/TAO1 (Homo sapiens, UniProt Q9UL54)
T27 construct: purchased Reaction Biology Corporation (Kinase HotSpot)
T27 sequence (Q9UL54 whole entry): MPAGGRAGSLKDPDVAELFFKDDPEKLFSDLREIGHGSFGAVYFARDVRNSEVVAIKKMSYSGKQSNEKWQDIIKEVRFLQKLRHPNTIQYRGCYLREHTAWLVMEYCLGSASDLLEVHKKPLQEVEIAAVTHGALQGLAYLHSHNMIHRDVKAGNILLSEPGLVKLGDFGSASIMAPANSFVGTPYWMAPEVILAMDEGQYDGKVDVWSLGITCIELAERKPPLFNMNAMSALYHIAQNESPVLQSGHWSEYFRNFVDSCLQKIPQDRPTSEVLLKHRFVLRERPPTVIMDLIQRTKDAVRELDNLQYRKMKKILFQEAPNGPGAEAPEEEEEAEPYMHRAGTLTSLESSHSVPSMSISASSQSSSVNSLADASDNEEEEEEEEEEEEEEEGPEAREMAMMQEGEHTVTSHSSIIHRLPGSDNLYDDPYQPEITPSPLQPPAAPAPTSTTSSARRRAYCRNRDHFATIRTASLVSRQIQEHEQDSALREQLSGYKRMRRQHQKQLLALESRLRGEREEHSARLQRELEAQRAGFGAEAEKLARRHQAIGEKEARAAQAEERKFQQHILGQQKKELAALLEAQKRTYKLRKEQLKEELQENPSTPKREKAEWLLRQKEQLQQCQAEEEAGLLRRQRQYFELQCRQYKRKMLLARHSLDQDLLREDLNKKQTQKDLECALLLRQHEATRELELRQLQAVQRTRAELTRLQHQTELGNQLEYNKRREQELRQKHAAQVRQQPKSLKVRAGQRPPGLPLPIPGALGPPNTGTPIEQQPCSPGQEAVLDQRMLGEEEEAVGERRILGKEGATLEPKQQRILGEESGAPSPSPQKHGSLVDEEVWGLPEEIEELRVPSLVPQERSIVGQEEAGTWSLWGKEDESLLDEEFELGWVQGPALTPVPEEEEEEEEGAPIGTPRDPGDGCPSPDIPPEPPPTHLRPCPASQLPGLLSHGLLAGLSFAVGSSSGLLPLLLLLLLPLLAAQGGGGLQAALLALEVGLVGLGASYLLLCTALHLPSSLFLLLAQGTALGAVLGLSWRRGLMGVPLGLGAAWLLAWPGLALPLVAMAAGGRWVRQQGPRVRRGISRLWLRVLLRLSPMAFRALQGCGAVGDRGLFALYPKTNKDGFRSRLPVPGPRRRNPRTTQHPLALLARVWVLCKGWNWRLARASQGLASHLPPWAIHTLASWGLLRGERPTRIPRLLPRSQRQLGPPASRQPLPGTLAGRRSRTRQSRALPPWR
Description: as §1

TAOK3/JIK = molecular target: T28, TAOK3/JIK (Homo sapiens, UniProt Q9H2K8)
T28 construct: purchased Reaction Biology Corporation (Kinase HotSpot)
Description: as §1

TYK1/LTK = molecular target: T29, TYK1/LTK (Homo sapiens, UniProt P29376)
T29 construct: purchased Reaction Biology Corporation (Kinase HotSpot)
T29 sequence (P29376 17-864): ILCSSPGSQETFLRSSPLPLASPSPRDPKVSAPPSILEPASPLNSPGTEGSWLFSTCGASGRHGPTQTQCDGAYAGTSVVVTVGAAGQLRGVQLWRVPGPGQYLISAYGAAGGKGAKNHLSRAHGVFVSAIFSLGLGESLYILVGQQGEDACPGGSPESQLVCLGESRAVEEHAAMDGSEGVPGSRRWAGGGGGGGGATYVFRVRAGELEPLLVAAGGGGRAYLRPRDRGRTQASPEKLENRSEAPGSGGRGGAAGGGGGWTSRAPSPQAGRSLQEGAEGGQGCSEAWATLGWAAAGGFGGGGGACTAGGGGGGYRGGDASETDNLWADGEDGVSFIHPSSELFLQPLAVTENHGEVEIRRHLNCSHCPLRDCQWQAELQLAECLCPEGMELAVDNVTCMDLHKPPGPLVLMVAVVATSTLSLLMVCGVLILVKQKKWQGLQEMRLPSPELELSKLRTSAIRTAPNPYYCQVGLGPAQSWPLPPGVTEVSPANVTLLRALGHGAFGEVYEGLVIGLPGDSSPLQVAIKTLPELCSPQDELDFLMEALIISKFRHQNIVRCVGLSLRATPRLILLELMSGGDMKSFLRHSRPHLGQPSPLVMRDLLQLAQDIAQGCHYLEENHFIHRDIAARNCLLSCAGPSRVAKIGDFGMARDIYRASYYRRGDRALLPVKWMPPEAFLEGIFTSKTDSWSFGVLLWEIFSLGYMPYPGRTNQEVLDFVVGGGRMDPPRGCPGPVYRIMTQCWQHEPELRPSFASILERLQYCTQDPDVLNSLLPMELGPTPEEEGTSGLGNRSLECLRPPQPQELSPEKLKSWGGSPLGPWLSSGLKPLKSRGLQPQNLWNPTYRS
Description: as §1

TYRO3/SKY = molecular target: T30, TYRO3/SKY (Homo sapiens, UniProt Q06418)
T30 construct: purchased Reaction Biology Corporation (Kinase HotSpot)
Description: as §1

With Cc1cnc(N[C@H]2CC[C@H](N)CC2)nc1-c1cnc2ccc(-c3ccccc3)cn12 [CDDD11-8] the remaining activity at 1 µM (ALK5/TGFBR1) was 93.9%, the remaining activity at 1 µM (ALK6/BMPR1B) was 105% and the remaining activity at 1 µM (CAMKK1) was 76.5%. It also gave a remaining activity at 1 µM (CDK5/p25) of 77.8%, a remaining activity at 1 µM (CK1g3) of 63.2% and a remaining activity at 1 µM (CK2a2) of 74.7%. It also gave a remaining activity at 1 µM (COT1/MAP3K8) of 101%, a remaining activity at 1 µM (DDR1) of 63.1% and a remaining activity at 1 µM (FAK/PTK2) of 63.3%. The remaining activity at 1 µM (FER) was 70%, the remaining activity at 1 µM (FLT3) was 2.43% and the remaining activity at 1 µM (HIPK4) was 52.4%. It also gave a remaining activity at 1 µM (IRR/INSRR) of 101%, a remaining activity at 1 µM (JNK2) of 103% and a remaining activity at 1 µM (LCK) of 72.5%. It also gave a remaining activity at 1 µM (MLCK/MYLK) of 57.2%, a remaining activity at 1 µM (MNK1) of 76.4% and a remaining activity at 1 µM (MRCKa/CDC42BPA) of 97.7%. For the same compound, the remaining activity at 1 µM (MST4) was 92.9%, the remaining activity at 1 µM (NLK) was 83.4% and the remaining activity at 1 µM (PAK4) was 99.7%. It also gave a remaining activity at 1 µM (PKG2/PRKG2) of 87%, a remaining activity at 1 µM (PLK4/SAK) of 89.3% and a remaining activity at 1 µM (PYK2) of 84.2%. The remaining activity at 1 µM (RSK3) was 45.6%, the remaining activity at 1 µM (STK25/YSK1) was 97.2% and the remaining activity at 1 µM (TAOK2/TAO1) was 45%. It also gave a remaining activity at 1 µM (TAOK3/JIK) of 48.6%, a remaining activity at 1 µM (TYK1/LTK) of 90.8% and a remaining activity at 1 µM (TYRO3/SKY) of 82.2%.
